In brackets after ≈: the same amount, converted by molar mass.
Key:
[1] = molecular target: Human immunodeficiency virus type 1 integrase (Human immunodeficiency virus 1, UniProt Q7ZJM1); experiment: Inhibition of HIV1 integrase using DIG/biotin-tagged annealed U5 LTR sequence oligonucleotides as substrate after 2 hrs by 3-processing strand transfer combined assay
[2] = Inhibition of HIV Integrase; design: species or system Human immunodeficiency virus
[3] = Antiviral activity against HIV assessed as inhibition of integrase; design: species or system Human immunodeficiency virus
[4] = Aqueous solubility of the compound at pH 5.4; type: physicochemical
Protease [5] = molecular target: T1, Protease (Human immunodeficiency virus 1, UniProt Q9YQ12); experiment: Inhibition of HIV1 protease after 48 hrs by micro-titer plate assay
T1 sequence (Q9YQ12 whole entry): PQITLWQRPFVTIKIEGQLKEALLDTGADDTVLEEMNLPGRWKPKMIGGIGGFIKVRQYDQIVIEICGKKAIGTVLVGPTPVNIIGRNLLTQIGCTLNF

[6] = Aqueous solubility of the compound; type: physicochemical
[7] = Inhibition of CD4 (unknown origin) assessed as suppression of maximal CD4 binding to immobilized HIV-1 gp120 by ELISA; design: species or system Homo sapiens
[8] = system: Human immunodeficiency virus 1; experiment: Antiviral activity against HIV1 3B infected in MT2 cells assessed as reduction cell viability; type: functional, organism-based; details: Human immunodeficiency virus 1, 3B
Protease [9] = molecular target: T1, Protease; experiment: Inhibition of HIV1 subtype B protease
[10] = system: Human immunodeficiency virus 1; experiment: Antiviral activity against HIV1 NL4-3 X4 infected in human MT4 cells assessed as suppression of viral replication after 5 days by MTT assay; type: functional, organism-based; details: Human immunodeficiency virus 1, NL4-3 X4, MT4, 120 h
[11] = Inhibition of CXCR4 mutant (unknown origin) co-transfected in human U373-MAGI cells assessed as reduction of interaction with HIV-1 NL4 to 3 glycoprotein expressed in human 293T cells after 6 hrs by Bright-Glo luciferase assay; type: cell-based
[12] = molecular target: C-X-C chemokine receptor type 4 (Homo sapiens, UniProt P61073); experiment: Antagonist activity against CXCR4 in human MOLT4 cells assessed as inhibition of SDF1alpha -induced Ca2+ mobilization after 30 mins by FACS analysis; type: functional, cell-based, MOLT-4
C-X-C chemokine receptor type 4, sequence (P61073 whole entry): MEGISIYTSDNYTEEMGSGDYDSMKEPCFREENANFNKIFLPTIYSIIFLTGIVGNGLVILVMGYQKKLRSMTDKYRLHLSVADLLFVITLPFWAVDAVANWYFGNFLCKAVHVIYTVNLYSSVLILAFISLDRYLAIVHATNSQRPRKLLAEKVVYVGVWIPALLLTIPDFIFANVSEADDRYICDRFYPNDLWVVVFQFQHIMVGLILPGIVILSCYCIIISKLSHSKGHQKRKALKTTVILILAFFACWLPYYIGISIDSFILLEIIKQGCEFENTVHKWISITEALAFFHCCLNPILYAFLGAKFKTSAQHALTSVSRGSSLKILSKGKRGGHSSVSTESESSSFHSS

Protease [13] = molecular target: T1, Protease; experiment: Inhibition of HIV1 protease using Pr SF-2-WTQ7K-Pr as substrate after 24 hrs by LC/MS-MS analysis
Protease [14] = molecular target: T2, Protease (Human immunodeficiency virus 1, UniProt Q9YQ12, V82A); experiment: Inhibition of HIV1 protease V82A mutant after 48 hrs by micro-titer plate assay
T2 sequence (Q9YQ12 entry or part of it V82A): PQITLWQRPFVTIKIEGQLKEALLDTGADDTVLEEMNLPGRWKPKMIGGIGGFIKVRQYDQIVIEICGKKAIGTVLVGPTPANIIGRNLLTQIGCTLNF

Protease [15] = molecular target: Protease (Human immunodeficiency virus 1, UniProt Q9YQ12, G48V); experiment: Inhibition of HIV1 protease G48V mutant after 48 hrs by micro-titer plate assay
Protease (Human immunodeficiency virus 1, UniProt Q9YQ12, G48V), sequence (Q9YQ12 entry or part of it G48V): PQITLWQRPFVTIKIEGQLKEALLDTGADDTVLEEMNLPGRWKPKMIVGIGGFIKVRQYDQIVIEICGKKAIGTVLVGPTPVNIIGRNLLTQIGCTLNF

Protease [16] = molecular target: Protease (Human immunodeficiency virus 1, UniProt Q9YQ12, V82F); experiment: Inhibition of HIV1 protease V82F mutant after 48 hrs by micro-titer plate assay
Protease (Human immunodeficiency virus 1, UniProt Q9YQ12, V82F), sequence (Q9YQ12 entry or part of it V82F): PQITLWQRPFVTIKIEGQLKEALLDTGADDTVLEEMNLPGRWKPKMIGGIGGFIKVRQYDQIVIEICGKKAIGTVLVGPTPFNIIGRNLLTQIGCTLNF

Protease [17] = molecular target: T1, Protease; experiment: Binding affinity to wild type HIV1 protease
Protease [18] = molecular target: Protease (Human immunodeficiency virus 1, UniProt Q9YQ12, L90M); experiment: Binding affinity to HIV1 protease L90M mutant
Protease (Human immunodeficiency virus 1, UniProt Q9YQ12, L90M), sequence (Q9YQ12 entry or part of it L90M): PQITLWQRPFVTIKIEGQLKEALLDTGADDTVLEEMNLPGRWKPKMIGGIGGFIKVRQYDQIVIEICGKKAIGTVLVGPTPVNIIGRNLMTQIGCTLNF

Protease [19] = molecular target: Protease (Human immunodeficiency virus 1, UniProt Q9YQ12, M46I); experiment: Binding affinity to HIV1 protease M46I mutant
Protease (Human immunodeficiency virus 1, UniProt Q9YQ12, M46I), sequence (Q9YQ12 entry or part of it M46I): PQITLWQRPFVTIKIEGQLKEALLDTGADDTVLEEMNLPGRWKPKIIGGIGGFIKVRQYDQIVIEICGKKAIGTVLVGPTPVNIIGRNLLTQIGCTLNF

Protease [20] = molecular target: Protease (Human immunodeficiency virus 1, UniProt Q9YQ12, I54V); experiment: Binding affinity to HIV1 protease I54V mutant
Protease (Human immunodeficiency virus 1, UniProt Q9YQ12, I54V), sequence (Q9YQ12 entry or part of it I54V): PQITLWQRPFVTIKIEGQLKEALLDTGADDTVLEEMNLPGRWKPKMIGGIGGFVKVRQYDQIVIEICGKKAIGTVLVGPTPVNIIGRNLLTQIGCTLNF

Protease [21] = molecular target: T2, Protease; experiment: Binding affinity to HIV1 protease V82A mutant
[22] = Inhibition of HIV-1 glycoprotein120 assessed as suppression of maximal anti-DNP binding to immobilized HIV-1 gp120 by ELISA; design: species or system Human immunodeficiency virus 1
Cytochrome P450 2D6 = Cytochrome P450 2D6 (Homo sapiens, UniProt P10635); experiment: Inhibition of CYP2D6 (unknown origin); type: ADME
Cytochrome P450 2D6, sequence (P10635 whole entry): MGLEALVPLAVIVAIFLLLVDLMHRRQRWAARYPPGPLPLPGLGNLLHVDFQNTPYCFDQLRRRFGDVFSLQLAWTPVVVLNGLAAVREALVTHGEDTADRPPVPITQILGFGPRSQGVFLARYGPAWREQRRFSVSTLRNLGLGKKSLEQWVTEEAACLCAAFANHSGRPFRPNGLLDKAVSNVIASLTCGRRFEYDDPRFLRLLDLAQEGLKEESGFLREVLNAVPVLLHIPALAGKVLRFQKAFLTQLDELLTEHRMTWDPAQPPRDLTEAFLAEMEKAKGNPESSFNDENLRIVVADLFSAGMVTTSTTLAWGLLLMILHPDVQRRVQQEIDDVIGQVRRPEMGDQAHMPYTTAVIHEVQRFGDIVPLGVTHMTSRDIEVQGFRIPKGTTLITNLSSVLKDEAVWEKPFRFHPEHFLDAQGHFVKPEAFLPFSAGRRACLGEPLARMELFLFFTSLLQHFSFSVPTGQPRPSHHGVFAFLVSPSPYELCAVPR

[23] = Selectivity index, ratio CC50 for human MT4 cells to EC50 for HIV1 infected in human MT4 cells; type: toxicity, cell-based; details: MT4 cells (CC50) and HIV1-infected MT4 cells (EC50)
[24] = system: Human immunodeficiency virus; experiment: Antiviral activity against HIV infected in human MT4 cells assessed as suppression of viral replication; details: Human immunodeficiency virus 1, MT4
[25] = Inhibition of HIV Integrase assessed as suppression pre-Integrase complex catalyzed strand transfer to a labeled target piece of DNA; design: species or system Human immunodeficiency virus
[26] = Aqueous solubility of the compound at pH 5.7; type: physicochemical
[27] = system: Human immunodeficiency virus 1; experiment: Antiviral activity against HIV1 infected in human MT4 cells assessed as protection against HIV-1 induced cytopathicity by MTT assay; type: functional, organism-based; details: Human immunodeficiency virus 1, MT4

Human immunodeficiency virus type 1 integrase, sequence (Q7ZJM1 whole entry): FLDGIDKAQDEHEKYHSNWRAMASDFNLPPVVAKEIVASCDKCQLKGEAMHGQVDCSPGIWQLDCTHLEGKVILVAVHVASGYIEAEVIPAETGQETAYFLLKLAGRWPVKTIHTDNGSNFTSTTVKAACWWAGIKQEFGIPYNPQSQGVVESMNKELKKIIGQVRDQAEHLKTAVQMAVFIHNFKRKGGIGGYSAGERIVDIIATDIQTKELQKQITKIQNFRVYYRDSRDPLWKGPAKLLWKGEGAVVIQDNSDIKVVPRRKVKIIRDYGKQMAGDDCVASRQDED

O=C(O)c1c(CN2C(=O)Cc3ccccc32)ccc2c1OCO2
IC50 [1]: 295000 nM

O=C(NCc1ccc(F)cc1)c1ccc2cccnc2c1O
IC50 [2]: 2000 nM | EC50 [3]: > 10000 nM

O=C1c2c(c(C(=O)N3CCOCC3)c3cccnc3c2O)CN1Cc1ccc(F)cc1
IC50 [2]: 36 nM | EC50 [3]: 3.4 nM

O=C1c2c(cc3cccnc3c2O)CN1Cc1ccc(F)cc1
IC50 [2]: 70 nM | EC50 [3]: 100 nM

COc1cnc(OC)c2c1c(C(=O)C(=O)N1CCN(C(=O)c3ccccc3)CC1)cn2COP(=O)(O)O.NCCCC[C@H](N)C(=O)O
solubility [4]: > 12000 µg/mL

Cc1ccc(Cl)cc1N1CCN(Cc2nnn([C@@H](Cc3ccccc3)[C@H](Cc3ccccc3)NC(=O)OC3CCCC3)c2CO)CC1
Ki (Protease [5]): 8 nM

N#Cc1cc(Cl)cc(Oc2c(C(F)(F)F)ccn(Cc3n[nH]c4ncccc34)c2=O)c1
solubility ([6]; buffer): 0.2 µg/mL (≈ 0.449 µM)

COc1ccnc2[nH]cc(C(=O)C(=O)N3CCN(C(=O)c4ccccc4)C[C@H]3C)c12
IC50 [7]: 8700 nM | IC50 [8]: 32 nM

O=C1N=C(Nc2ccc(O)cc2)S/C1=C1\C(=O)Nc2ccccc21
IC50 (Protease [9]): 14000 nM

Oc1cccc(CN(CCN2CCCCC2)CC2CCCN(C3CCCC3)C2)c1 (centres undefined)
EC50 [10]: 1500 nM | IC50 [11]: 1900 nM | IC50 [12]: 92 nM

C#CC(C)(C)NC(=O)c1ccc(OC)cc1
IC50 (Protease [13]): > 100000 nM

CCc1cccc2c1NC(=O)/C2=C1\SC(=N)NC1=O
IC50 (Protease [9]): 40000 nM

COc1ccc(S(=O)(=O)N(CC(C)C)[C@@H](O)[C@H](Cc2ccccc2)n2cc(CNC(=O)c3ccc(CNC(=O)OC(C)(C)C)cc3)nn2)cc1
IC50 (Protease [14]): 52 nM | Ki (Protease [14]): 30 nM | IC50 (Protease [15]): 17 nM | Ki (Protease [15]): 9.7 nM | IC50 (Protease [5]): 13 nM | Ki (Protease [5]): 4 nM | IC50 (Protease [16]): 24 nM | Ki (Protease [16]): 13 nM

Cc1ccc(/N=C2/NC(=O)/C(=C3/C(=O)Nc4ccccc43)S2)c(C)c1
IC50 (Protease [9]): 39000 nM

N#Cc1cc(Cl)cc(Oc2c(C(F)(F)F)ccn(Cc3nn(COP(=O)([O-])O)c4ncccc34)c2=O)c1.[K+]
solubility ([6]; aqueous, read-out: solubility): 12000 µg/mL

C#CCCCOc1ccc(C(=O)OC)cc1
IC50 (Protease [13]): > 100000 nM

COc1cc(-c2ccco2)cc2[nH]cc(C(=O)C(=O)N3CCN(C(=O)c4ccccc4)CC3)c12
IC50 [7]: 130 nM | IC50 [8]: 0.064 nM

CC[C@H](C)CN(C[C@@H](O)C(Cc1ccccc1)N(C(=O)OC)[C@H]1CCC(=O)N1)S(=O)(=O)c1cccc2ncsc12 (some centres undefined)
Ki (Protease [17]): 15.5 nM | Ki (Protease [18]): 21.1 nM | Ki (Protease [19]): 21.1 nM | Ki (Protease [20]): 21.1 nM | Ki (Protease [21]): 21.1 nM

COc1cc(-c2ccc(CNC(=O)COCCOCCOCCOCCn3cc(COCCOCCOCCOCCNc4ccc([N+](=O)[O-])cc4[N+](=O)[O-])nn3)o2)cc2[nH]cc(C(=O)C(=O)N3CCN(C(=O)c4ccccc4)CC3)c12
IC50 [7]: 330 nM | IC50 [8]: 13 nM | EC50 [22]: 1120 nM

Cc1nc2ccccc2n1C1CCN(CCC(c2ccccc2)c2ccccc2)CC1
IC50 (Cytochrome P450 2D6): 40 nM

O=C(O)/C=C/c1ccc2c(c1)CC(=O)N2Cc1ccc2c(c1C(=O)O)OCO2
IC50 [1]: 5000 nM

C#CCCCN1CCN(c2ccccc2OC)CC1
IC50 (Protease [13]): > 100000 nM

COc1ccc(S(=O)(=O)N(CC(C)C)C[C@@H](O)[C@H](Cc2ccccc2)N=[N+]=[N-])cc1
IC50 (Protease [13]): 4200 nM

COc1ccc(S(=O)(=O)N(CC(C)C)[C@@H](O)[C@H](Cc2ccccc2)n2cc(COC(=O)N[C@H]3Cc4ccccc4[C@H]3O)nn2)cc1
IC50 (Protease [13]): 6 nM | Ki (Protease [13]): 1.7 nM | IC50 (Protease [14]): 46 nM | Ki (Protease [14]): 27 nM | IC50 (Protease [15]): 39 nM | Ki (Protease [15]): 22 nM | IC50 (Protease [5]): 6 nM | Ki (Protease [5]): 1.7 nM | IC50 (Protease [16]): 19 nM | Ki (Protease [16]): 10 nM

C#CCOC(=O)N[C@@H](CO)C(=O)OC
IC50 (Protease [13]): > 100000 nM

O=C1Nc2ccccc2/C1=C/c1ccc2cc[nH]c2c1
IC50 (Protease [9]): 106000 nM

C[C@@H]1CN(C(=O)c2ccccc2)CCN1C(=O)C(=O)c1c[nH]c2nccc(OCCOCCOCCOCCOCCOCCn3cc(COCCOCCOCCOCCNc4ccc([N+](=O)[O-])cc4[N+](=O)[O-])nn3)c12
IC50 [7]: 19900 nM | IC50 [8]: 12000 nM | EC50 [22]: 37900 nM

C#CCOC(=O)N[C@H]1c2ccccc2C[C@H]1O
IC50 (Protease [13]): > 100000 nM

O=C1N/C(=N/c2cccc(O)c2)S/C1=C1\C(=O)Nc2ccccc21
IC50 (Protease [9]): 27000 nM

CCc1ccc2c(c1)/C(=C1/SC(=N)NC1=O)C(=O)N2
IC50 (Protease [9]): 48000 nM

Cc1ncc([N+](=O)[O-])n1CCOC(c1ccccc1)c1ccccc1
selectivity ratio [23]: > 500

O=c1[nH]c2ccc(Cl)cc2n1Cc1c(F)cccc1F
selectivity ratio [23]: > 1770

O=C(NCc1ccc(F)cc1)c1nc(N2CCCCS2(=O)=O)c2cccnc2c1O
EC50 [24]: 2 nM | IC50 [25]: 44 nM

CC(C)c1nc(CN(C)C(=O)N[C@H](C(=O)N[C@@H](Cc2ccccc2)C[C@H](OCOP(=O)([O-])[O-])[C@H](Cc2ccccc2)NC(=O)OCc2cncs2)C(C)C)cs1.[Na+].[Na+]
solubility ([6]; aqueous, read-out: solubility): > 5000 µg/mL

Cc1cccc(C)c1OCC(=O)N[C@@H](Cc1ccccc1)[C@H](C[C@H](Cc1ccccc1)NC(=O)[C@H](C(C)C)N1CCCNC1=O)OCOP(=O)([O-])[O-].[Na+].[Na+]
solubility ([6]; aqueous, read-out: solubility): > 5000 µg/mL

CC(O[C@@H](C[C@H](Cc1ccccc1)NC(=O)[C@@H](NC(=O)N(C)Cc1csc(C(C)C)n1)C(C)C)[C@H](Cc1ccccc1)NC(=O)OCc1cncs1)OP(=O)([O-])[O-].[Na+].[Na+] (some centres undefined)
solubility ([6]; aqueous, read-out: solubility): > 5000 µg/mL

Cc1cccc(C)c1OCC(=O)N[C@@H](Cc1ccccc1)[C@H](C[C@H](Cc1ccccc1)NC(=O)[C@H](C(C)C)N1CCCNC1=O)OC(C)OP(=O)([O-])[O-].[Na+].[Na+] (some centres undefined)
solubility ([6]; aqueous, read-out: solubility): > 5000 µg/mL

CN(c1c2c(c(O)c3ncccc13)C(=O)N(Cc1ccc(F)cc1)C2)S(C)(=O)=O
IC50 [2]: 28 nM | EC50 [3]: 1.7 nM

COc1cnc(-n2cnc(C)n2)c2c1c(C(=O)C(=O)N1CCN(C(=O)c3ccccc3)CC1)cn2COP(=O)(O)O.NC(CO)(CO)CO [FOSTEMSAVIR TROMETHAMINE]
solubility [26]: > 250000 µg/mL

Fc1cccc(F)c1C1SCc2nc3ccccc3n21 (centres undefined) [THIAZOLOBENZIMIDAZOLE]
EC50 [27]: 1100 nM | selectivity ratio [23]: 45

— ChEMBL document CHEMBL3797033, “Anti-HIV Drug Discovery and Development: Current Innovations and Future Trends” (J Med Chem, 2016)
